In ChEMBL document CHEMBL5236636, “Synthesis, anticancer evaluation, and molecular docking studies of thiazolyl-pyrazoline derivatives” (Bioorg Med Chem Lett, 2023):
Active and inactive are the calls of the source. No cut-off for these calls is given here.

Assays:
A-375 [1] = assay: Antiproliferative activity against human A-375 cells incubated for 24 hrs by MTT assay; assay type: functional, cell-based; details: A-375, 24 h
A549 [2] = assay: Antiproliferative activity against human A549 cells incubated for 24 hrs by MTT assay; assay type: functional, cell-based; details: A549, 24 h
[3] = Cytotoxicity against rabbit articular chondrocytes incubated for 24 hrs by MTT assay; assay type: toxicity, cell-based, Oryctolagus cuniculus, Chondrocyte
A549 [4] = assay: Antimetastatic activity against human A549 cells assessed as reduction in MMP-2 expression at 100 uM preincubated with SNP for 3 hrs followed by compound addition and measured after 24 hrs by gelatin zymography; assay type: functional, cell-based
A549 [5] = assay: Antimetastatic activity against human A549 cells assessed as reduction in MMP-9 expression at 100 uM preincubated with SNP for 3 hrs followed by compound addition and measured after 24 hrs by gelatin zymography; assay type: functional, cell-based
A-375 [6] = assay: Antimetastatic activity against human A-375 cells assessed as reduction in MMP-2 expression at 100 uM preincubated with SNP for 3 hrs followed by compound addition and measured after 24 hrs by gelatin zymography; assay type: functional, cell-based
[7] = Selectivity index, ratio of IC50 for rabbit articular chondrocytes to IC50 for human A-375
A-375 [8] = assay: Antimetastatic activity against human A-375 cells assessed as reduction in MMP-9 expression at 100 uM preincubated with SNP for 3 hrs followed by compound addition and measured after 24 hrs by gelatin zymography; assay type: functional, cell-based
A549 [9] = assay: Antiinflammatory activity against human A549 cells assessed as reduction in COX-2 expression at 100 uM preincubated with SNP for 3 hrs followed by compound addition and measured after 24 hrs by Western blot analysis; assay type: functional, cell-based
A-375 [10] = assay: Antiinflammatory activity against human A-375 cells assessed as reduction in COX-2 expression at 100 uM preincubated with SNP for 3 hrs followed by compound addition and measured after 24 hrs by Western blot analysis; assay type: functional, cell-based
A-375 [11] = assay: Potency index, ratio of erlotinib IC50 to test compound IC50 for human A-375 cells; assay type: functional
A549 [12] = assay: Potency index, ratio of erlotinib IC50 to test compound IC50 for human A549 cells; assay type: functional

| SMILES | IC50 (A-375 [1]) | IC50 (A549 [2]) | Ratio IC50 [7] | IC50 at 24 h [3] | Activity (A549 [4]) | Activity (A549 [5]) | Activity (A-375 [6]) | Activity (A-375 [8]) | Activity (A549 [9]) | Activity (A-375 [10]) | Ratio IC50 (A-375 [11]) | Ratio IC50 (A549 [12]) |
| --- | --- | --- | --- | --- | --- | --- | --- | --- | --- | --- | --- | --- |
| Cc1ccc(C2CC(c3ccccc3)=NN2c2nc(-c3ccc(Br)cc3)cs2)cc1 (configuration not stated) | 103 µM | 126 µM |  |  |  |  |  |  |  |  |  |  |
| COc1ccc(C2=NN(c3nc(-c4ccc(Br)cc4)cs3)C(c3ccc(Cl)cc3)C2)cc1 (configuration not stated) | 55.7 µM | 47.8 µM |  |  |  |  |  |  |  |  |  |  |
| COc1ccc(C2CC(c3ccccc3)=NN2c2nc(-c3ccc(Br)cc3)cs2)cc1 (configuration not stated) | 40.5 µM | 37.4 µM |  |  |  |  |  |  |  |  |  |  |
| COc1ccc(C2=NN(c3nc(-c4ccc(Br)cc4)cs3)C(c3ccc(Br)cc3)C2)cc1 (configuration not stated) | 31.6 µM | 45.7 µM |  |  |  |  |  |  |  |  |  |  |
| Clc1ccc(C2CC(c3ccccc3)=NN2c2nc(-c3ccc(Br)cc3)cs2)cc1 (configuration not stated) | 42.8 µM | 52 µM |  |  |  |  |  |  |  |  |  |  |
| COc1ccc(C2=NN(c3nc(-c4ccc(Br)cc4)cs3)C(c3ccc(OC)cc3)C2)cc1 (configuration not stated) | 45.1 µM | 51.8 µM |  |  |  |  |  |  |  |  |  |  |

The next lines start with results.

| IC50 (A-375 [1]) | IC50 (A549 [2]) | Ratio IC50 [7] | SMILES | IC50 at 24 h [3] | Activity (A549 [4]) | Activity (A549 [5]) | Activity (A-375 [6]) | Activity (A-375 [8]) | Activity (A549 [9]) | Activity (A-375 [10]) | Ratio IC50 (A-375 [11]) | Ratio IC50 (A549 [12]) |
| --- | --- | --- | --- | --- | --- | --- | --- | --- | --- | --- | --- | --- |
| 20.1 µM | 26.1 µM | 7.53 | COc1ccc(C2=NN(c3nc(-c4ccc(Br)cc4)cs3)C(c3ccc(C)cc3)C2)cc1 (configuration not stated) | 151 µM | inactive | inactive | inactive | inactive |  |  |  |  |
| 97.5 µM | 74.2 µM |  | Brc1ccc(-c2csc(N3N=C(c4ccccc4)CC3c3ccc(Br)cc3)n2)cc1 (configuration not stated) |  |  |  |  |  |  |  |  |  |
| 20.6 µM | 27.3 µM | 21.1 | COc1ccc(C2=NN(c3nc(-c4ccc(Br)cc4)cs3)C(c3ccc(OCc4ccccc4)c(OC)c3)C2)cc1 (configuration not stated) | 435 µM | inactive | inactive | inactive | inactive | Active | Active |  |  |
| 16.1 µM | 20.3 µM | 9.04 | COc1ccc(C2=NN(c3nc(-c4ccc(Br)cc4)cs3)C(c3ccc(F)cc3)C2)cc1 (configuration not stated) | 146 µM | inactive | inactive | inactive | inactive |  | Active | 1.7 | 1.7 |
| 18.4 µM | 25.9 µM | 19.4 | COc1cc(C2CC(c3ccccc3)=NN2c2nc(-c3ccc(Br)cc3)cs2)ccc1OCc1ccccc1 (configuration not stated) | 357 µM | inactive | inactive | inactive | inactive | Active | Active |  |  |
| 25.9 µM | 34.2 µM | 2.45 | C#Cc1cccc(Nc2ncnc3cc(OCCOC)c(OCCOC)cc23)c1 [ERLOTINIB] | 63.5 µM |  |  |  |  |  |  |  |  |
